Data: PubChem BioAssay (NCI)
Values joined by “and” are separate entries in the source; they are usually repeats but may differ in a detail not shown here. Equal entries are not always repeated.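 A five-concentration, 48-hour dose response in 96-well plates underlies each endpoint, interpolated linearly between surrounding concentrations. Abbreviation: GI50, concentration required for 50% inhibition of growth. TGI is the concentration that stops growth completely.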

Experiments:
Assay in all cases: NCI-60 cell line screen, 48 h
NCI-H460 lung = test system: NCI-H460 lung
HL-60(TB) leukemia = test system: HL-60(TB) leukemia
OVCAR-4 ovarian = test system: OVCAR-4 ovarian
BT-549 breast = test system: BT-549 breast
HCT-116 colon = test system: HCT-116 colon
SK-MEL-5 melanoma = test system: SK-MEL-5 melanoma
HCC-2998 colon = test system: HCC-2998 colon
T-47D breast = test system: T-47D breast
KM12 colon = test system: KM12 colon
SW-620 colon = test system: SW-620 colon
UO-31 renal = test system: UO-31 renal

Row | SMILES | TGI (NCI-H460 lung) | TGI (HL-60(TB) leukemia) | TGI (OVCAR-4 ovarian) | TGI (BT-549 breast) | TGI (HCT-116 colon) | TGI (SK-MEL-5 melanoma) | TGI (HCC-2998 colon) | TGI (T-47D breast) | TGI (KM12 colon) | TGI (SW-620 colon) | TGI (UO-31 renal) | GI50 (NCI-H460 lung) | GI50 (OVCAR-4 ovarian) | GI50 (BT-549 breast) | GI50 (HCC-2998 colon) | GI50 (T-47D breast) | GI50 (UO-31 renal)
1 | O=C(O)CCC(=O)Nc1ccc2c(c1)S(=O)(=O)N(CC(=O)O)C2=O | > 100 µM | > 100 µM | > 100 µM | > 100 µM | > 100 µM | > 100 µM | > 100 µM | > 100 µM | > 100 µM | > 100 µM | > 100 µM |  |  |  |  |  | 
2 | COc1ccc(NC(=O)C2=C(SC)C(C#N)C(=O)N=C2N)cc1 (centres undefined) | > 100 µM | > 100 µM | > 100 µM | > 100 µM | > 100 µM | > 100 µM | > 100 µM | > 100 µM | 8.57 µM | > 100 µM | > 100 µM |  |  |  |  |  | 
3 | CCCCCCC(N)(CCCCCC)C(=O)Nn1c(C)ccc1C | > 100 µM | > 100 µM | > 100 µM | > 100 µM | > 100 µM | > 100 µM | > 100 µM | > 100 µM | > 100 µM | > 100 µM | > 100 µM |  |  |  |  |  | 
4 | CN1CC=C(OP(=O)(NCc2ccccc2)N(CCCl)CCCl)CC1 (centres undefined) | > 100 µM | > 100 µM | > 100 µM | > 100 µM | > 100 µM |  | > 100 µM | > 100 µM | > 100 µM | > 100 µM | > 100 µM |  |  |  |  |  | 
5 | CN(C)c1ccc(C2CC(=O)CC(c3ccc(N(C)C)cc3)C23C(=O)NC(=O)NC3=O)cc1 (centres undefined) | > 25 µM | > 25 µM | > 25 µM | > 25 µM | > 25 µM | > 25 µM | > 25 µM | > 25 µM | > 25 µM | > 25 µM | > 25 µM |  |  |  |  |  | 
6 | CC[C@@]1(O)C(=O)OCc2c1c(Cl)c1n(c2=O)Cc2cc3ccccc3nc2-1 | 4.25 µM | > 26.3 µM | 63.1 µM | > 47.7 µM | 8.76 µM | 5.42 µM | 80.6 µM | > 23 µM | > 95.5 µM | > 100 µM | 9.22 µM |  |  |  |  |  | 
7 | CC(=O)NNC=N/C(C#N)=C(\N)C#N | > 100 µM | > 100 µM | > 100 µM | > 100 µM | > 100 µM | > 100 µM | > 100 µM | > 100 µM | > 100 µM | > 100 µM | > 100 µM |  |  |  |  |  | 
8 | COC(=O)n1c(=O)nc2c3c(ncn21)Oc1c(c(-c2ccccc2)nn1-c1ccccc1)C3c1ccc(Cl)cc1 (centres undefined) | 3.09 µM | 3.17 µM | 4.66 µM | 17.7 µM | 2.17 µM | 3.16 µM | 2.72 µM | 3.23 µM | 2.66 µM | 3.06 µM | 3.28 µM |  |  |  |  |  | 
9 | Fc1ccc(C(OCCN2CCC3CCC(C2)N3CCCc2ccccc2)c2ccc(F)cc2)cc1 (centres undefined) | 7.51 µM | 5.21 µM | 22.3 µM | 21.1 µM | 10.6 µM | 3.22 µM | 4.05 µM | 4.79 µM | 11.3 µM | 19.9 µM | 16.3 µM |  |  |  |  |  | 
10 | C[N+](C)(C)CC1Cc2ccccc2C1=O (centres undefined) | > 10 µM | 4.45 µM | 8.07 µM | > 10 µM | 3.11 µM | > 10 µM | > 10 µM | 6.49 µM | > 10 µM | 3.84 µM | > 10 µM |  |  |  |  |  | 
11 | COC(=O)/C=C/c1cc(OC)c2c(c1)C(C(=O)OC)C(c1ccc(OC)c(OC)c1)O2 (centres undefined) | > 100 µM | > 100 µM | > 100 µM | 99.6 µM and > 100 µM | > 100 µM | > 100 µM | > 100 µM | > 100 µM | > 100 µM | > 100 µM | > 100 µM | 48.6 µM and 15.7 µM | 45.9 µM and 8.71 µM | 29 µM and 6.01 µM | > 100 µM and 38.6 µM | 39.9 µM and 4.16 µM | 32.1 µM and 8.62 µM
12 | Cc1ccc2c(ccc3c[n+]4ccccc4c(C)c32)c1 | > 100 µM | > 100 µM | 10.8 µM | 5.74 µM | 27.2 µM | 2.47 µM | 17.9 µM | 12.2 µM | 2.5 µM | 22.8 µM | > 100 µM |  |  |  |  |  | 
13 | N#Cc1cnn2c1n[n+]([O-])c1ccc(Cl)cc12 | 26.5 µM | 6.52 µM | 4.03 µM | 25.4 µM | 22.7 µM | 25 µM | 3.46 µM | 37.6 µM | > 100 µM | 29.6 µM | 21.7 µM |  |  |  |  |  | 
14 | COc1ccc(CSCc2cc(OC)c(OC)c(OC)c2)cc1 | > 100 µM | > 100 µM | > 100 µM | > 100 µM | > 31.6 µM | > 100 µM | > 31.6 µM | > 100 µM | > 100 µM | > 100 µM | > 100 µM |  |  |  |  |  | 
